Laboratory results published in PubChem BioAssay (NCI).
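How tested: cells in 96-well plates exposed to compound for 48 hours at five concentrations. TGI: total growth inhibition.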

Tested on: OVCAR-4 ovarian
Test: growth of human tumour cells (NCI), 48 h

SMILES	TGI
C/C(=N\NC(=S)N1CCCCC1)c1nc2ncccc2[nH]1	> 100 µM

Tested on: RPMI-8226 leukemia
Test: growth of human tumour cells (NCI), 48 h

SMILES	TGI
c1nc(OCC2CCCCC2)c2[nH]cnc2n1	> 100 µM
Oc1cn(-c2ccc(Cl)cc2)nc1-c1nnc(-c2ccccc2)o1	31.9 µM
COc1ccc(N2C(=O)/C(=C(\C)c3cc4ccccc4oc3=O)N=C2c2cc([N+](=O)[O-])ccc2Cl)cc1	> 100 µM
O=C(O)CC(CC(=O)O)C(=O)O	> 100 µM
CC(=O)N(C)c1ccc(Nc2cc(C)[nH]c3ccc4ncnc4c23)cc1	82.7 µM
FC(F)(F)c1ccc(N=C/C=C(/Nc2ccc(C(F)(F)F)cc2)c2ccc(Cl)cc2)cc1	84.8 µM
CCCCN(CCCC)CC(O)c1cc(-c2ccc(C(F)(F)F)cc2)nc(-c2ccc(C(F)(F)F)cc2)c1 (configuration not stated)	> 100 µM
CC(C)(C)[Si](OC1CC(n2cnc3c(N)ncnc32)OC1CO)(c1ccccc1)c1ccccc1 (configuration not stated)	43.9 µM
NS(=O)(=O)c1ccc(N=Nc2nc3[nH]c(=O)[nH]c(=O)c3[nH]2)cc1	> 100 µM
CC1=CC(C)C/C=C/C2C3OC3(C)C(C)C3C(Cc4c[nH]c5ccccc45)NC(=O)C23C(=O)C=CC(=O)C1O (configuration not stated)	5.06 µM
O=C(O)c1ccc(Nc2c3ccccc3nc3ccccc23)cc1	> 100 µM
COc1ccc(C2COc3cc(OC(C)=O)c(OC(C)=O)cc3C2)cc1 (configuration not stated)	36.9 µM
CCOc1cc2c(OCc3ccccc3)cc3c4cc(OC)c(OC)cc4c[n+](C)c3c2cc1OC	> 29.6 µM
C/C(=N\NC(=S)N1CCCCC1)c1nc2ncccc2[nH]1	30.1 µM

Tested on: NCI-H460 lung
Test: growth of human tumour cells (NCI), 48 h

SMILES	TGI
c1nc(OCC2CCCCC2)c2[nH]cnc2n1	> 100 µM
Oc1cn(-c2ccc(Cl)cc2)nc1-c1nnc(-c2ccccc2)o1	13.8 µM
COc1ccc(N2C(=O)/C(=C(\C)c3cc4ccccc4oc3=O)N=C2c2cc([N+](=O)[O-])ccc2Cl)cc1	> 100 µM
O=C(O)CC(CC(=O)O)C(=O)O	> 100 µM
CC(=O)N(C)c1ccc(Nc2cc(C)[nH]c3ccc4ncnc4c23)cc1	12.3 µM
FC(F)(F)c1ccc(N=C/C=C(/Nc2ccc(C(F)(F)F)cc2)c2ccc(Cl)cc2)cc1	> 100 µM
CCCCN(CCCC)CC(O)c1cc(-c2ccc(C(F)(F)F)cc2)nc(-c2ccc(C(F)(F)F)cc2)c1 (configuration not stated)	> 100 µM
CC(C)(C)[Si](OC1CC(n2cnc3c(N)ncnc32)OC1CO)(c1ccccc1)c1ccccc1 (configuration not stated)	30.7 µM
NS(=O)(=O)c1ccc(N=Nc2nc3[nH]c(=O)[nH]c(=O)c3[nH]2)cc1	> 100 µM
CC1=CC(C)C/C=C/C2C3OC3(C)C(C)C3C(Cc4c[nH]c5ccccc45)NC(=O)C23C(=O)C=CC(=O)C1O (configuration not stated)	27.6 µM
O=C(O)c1ccc(Nc2c3ccccc3nc3ccccc23)cc1	> 100 µM
Cc1cc(C)n(C(=C(C(Cl)=C(Cl)Cl)[N+](=O)[O-])n2nc(C)cc2C)n1	12.7 µM
COc1ccc(C2COc3cc(OC(C)=O)c(OC(C)=O)cc3C2)cc1 (configuration not stated)	41.7 µM
CCOc1cc2c(OCc3ccccc3)cc3c4cc(OC)c(OC)cc4c[n+](C)c3c2cc1OC	> 58.9 µM
C/C(=N\NC(=S)N1CCCCC1)c1nc2ncccc2[nH]1	49.8 µM

Tested on: OVCAR-3 ovarian
Test: growth of human tumour cells (NCI), 48 h

SMILES	TGI
c1nc(OCC2CCCCC2)c2[nH]cnc2n1	> 100 µM
Oc1cn(-c2ccc(Cl)cc2)nc1-c1nnc(-c2ccccc2)o1	11.6 µM
COc1ccc(N2C(=O)/C(=C(\C)c3cc4ccccc4oc3=O)N=C2c2cc([N+](=O)[O-])ccc2Cl)cc1	> 100 µM
O=C(O)CC(CC(=O)O)C(=O)O	> 100 µM
CC(=O)N(C)c1ccc(Nc2cc(C)[nH]c3ccc4ncnc4c23)cc1	27.5 µM
FC(F)(F)c1ccc(N=C/C=C(/Nc2ccc(C(F)(F)F)cc2)c2ccc(Cl)cc2)cc1	27.9 µM
CCCCN(CCCC)CC(O)c1cc(-c2ccc(C(F)(F)F)cc2)nc(-c2ccc(C(F)(F)F)cc2)c1 (configuration not stated)	> 100 µM
CC(C)(C)[Si](OC1CC(n2cnc3c(N)ncnc32)OC1CO)(c1ccccc1)c1ccccc1 (configuration not stated)	33.9 µM
NS(=O)(=O)c1ccc(N=Nc2nc3[nH]c(=O)[nH]c(=O)c3[nH]2)cc1	> 100 µM
CC1=CC(C)C/C=C/C2C3OC3(C)C(C)C3C(Cc4c[nH]c5ccccc45)NC(=O)C23C(=O)C=CC(=O)C1O (configuration not stated)	12.1 µM
O=C(O)c1ccc(Nc2c3ccccc3nc3ccccc23)cc1	> 100 µM
Cc1cc(C)n(C(=C(C(Cl)=C(Cl)Cl)[N+](=O)[O-])n2nc(C)cc2C)n1	10.4 µM
COc1ccc(C2COc3cc(OC(C)=O)c(OC(C)=O)cc3C2)cc1 (configuration not stated)	39.9 µM
CCOc1cc2c(OCc3ccccc3)cc3c4cc(OC)c(OC)cc4c[n+](C)c3c2cc1OC	6.17 µM
C/C(=N\NC(=S)N1CCCCC1)c1nc2ncccc2[nH]1	> 100 µM

Tested on: NCI/ADR-RES ovarian
Test: growth of human tumour cells (NCI), 48 h

SMILES	TGI
c1nc(OCC2CCCCC2)c2[nH]cnc2n1	> 100 µM
Oc1cn(-c2ccc(Cl)cc2)nc1-c1nnc(-c2ccccc2)o1	7 µM
O=C(O)CC(CC(=O)O)C(=O)O	> 100 µM
CC(=O)N(C)c1ccc(Nc2cc(C)[nH]c3ccc4ncnc4c23)cc1	453 µM
FC(F)(F)c1ccc(N=C/C=C(/Nc2ccc(C(F)(F)F)cc2)c2ccc(Cl)cc2)cc1	32.3 µM
CCCCN(CCCC)CC(O)c1cc(-c2ccc(C(F)(F)F)cc2)nc(-c2ccc(C(F)(F)F)cc2)c1 (configuration not stated)	> 100 µM
NS(=O)(=O)c1ccc(N=Nc2nc3[nH]c(=O)[nH]c(=O)c3[nH]2)cc1	> 100 µM
CC1=CC(C)C/C=C/C2C3OC3(C)C(C)C3C(Cc4c[nH]c5ccccc45)NC(=O)C23C(=O)C=CC(=O)C1O (configuration not stated)	68.2 µM
O=C(O)c1ccc(Nc2c3ccccc3nc3ccccc23)cc1	> 100 µM
Cc1cc(C)n(C(=C(C(Cl)=C(Cl)Cl)[N+](=O)[O-])n2nc(C)cc2C)n1	20.5 µM
COc1ccc(C2COc3cc(OC(C)=O)c(OC(C)=O)cc3C2)cc1 (configuration not stated)	101 µM
CCOc1cc2c(OCc3ccccc3)cc3c4cc(OC)c(OC)cc4c[n+](C)c3c2cc1OC	> 100 µM
C/C(=N\NC(=S)N1CCCCC1)c1nc2ncccc2[nH]1	> 100 µM

Tested on: SNB-75 CNS
Test: growth of human tumour cells (NCI), 48 h

SMILES	TGI
c1nc(OCC2CCCCC2)c2[nH]cnc2n1	> 100 µM
Oc1cn(-c2ccc(Cl)cc2)nc1-c1nnc(-c2ccccc2)o1	> 100 µM
COc1ccc(N2C(=O)/C(=C(\C)c3cc4ccccc4oc3=O)N=C2c2cc([N+](=O)[O-])ccc2Cl)cc1	> 100 µM
O=C(O)CC(CC(=O)O)C(=O)O	> 100 µM
CC(=O)N(C)c1ccc(Nc2cc(C)[nH]c3ccc4ncnc4c23)cc1	30 µM
FC(F)(F)c1ccc(N=C/C=C(/Nc2ccc(C(F)(F)F)cc2)c2ccc(Cl)cc2)cc1	36.8 µM
CCCCN(CCCC)CC(O)c1cc(-c2ccc(C(F)(F)F)cc2)nc(-c2ccc(C(F)(F)F)cc2)c1 (configuration not stated)	> 100 µM
NS(=O)(=O)c1ccc(N=Nc2nc3[nH]c(=O)[nH]c(=O)c3[nH]2)cc1	> 100 µM
CC1=CC(C)C/C=C/C2C3OC3(C)C(C)C3C(Cc4c[nH]c5ccccc45)NC(=O)C23C(=O)C=CC(=O)C1O (configuration not stated)	8.44 µM
O=C(O)c1ccc(Nc2c3ccccc3nc3ccccc23)cc1	> 100 µM
Cc1cc(C)n(C(=C(C(Cl)=C(Cl)Cl)[N+](=O)[O-])n2nc(C)cc2C)n1	18.1 µM
COc1ccc(C2COc3cc(OC(C)=O)c(OC(C)=O)cc3C2)cc1 (configuration not stated)	25.8 µM
CCOc1cc2c(OCc3ccccc3)cc3c4cc(OC)c(OC)cc4c[n+](C)c3c2cc1OC	> 100 µM
C/C(=N\NC(=S)N1CCCCC1)c1nc2ncccc2[nH]1	> 100 µM
